In patent US20180318291A1, “USE OF AMINOTHIAZOLE MYD88 SPECIFIC INHIBITOR TJM2010-5” (WUHAN INNAMUNE PHARMACEUTICAL INC. LTD., priority 2015, published 2018):

System: C57bl/6 mice
Assay: BLM (bleomycin) pulmonary inflammation model
Format: in vivo
Experimental: 1. Animal grouping: C57bl/6(B6) NaCl (200 μl nasal drip) group, C57bl/6 (B6) BLM group and TJM2010-5BLM group (provide intraperitoneal injection of TJM2010-5 dissolved in 0.5% CMC of 150 mg/kg/d on day 0-3, 5, 7, 9, 11, 13, 15).
2. Construct pulmonary inflammation model with BLM (bleomycin) nasal drips: conduct airway anesthesia with 40 μl of ketaminexylazine, and administrate BLM sulfate by nasal dripping (300 μg or 15 mg/kg).
3. Collect cell and cytokines with bronchoalveolar lavage fluid (BAL): Cut open the trachea and insert the plastic sleeve; then lavage with 0.3 ml of PBS at 37° C., and withdraw the lavage fluid (the withdrawn fluid is more than 95%), and repeat the process for 10 times. The lavage fluid consists of two parts: one part is used for detection of cytokins (600 g, conduct centrifugation for 10 min, collect and store the supernatant at −80° C. for detection); the other part is used for cell counting (0.4 ml, including substratum, suspension), count at 4° C.
4. Detect cells and factors in tissue with pulmonary homogenate: After BAL, take and grind the whole lung, and conduct centrifugation to take supernatant, then, store it at −80 C° for detection of MPO.
5. Conduct activity detection of pulmonary MPO: Completely lavage the lung with saline passing through right heart, and take pulmonary tissue homogenate, then conduct centrifugation to take supernatant. After that, suspend and precipitate it with 1 ml of PBS (including 0.5% of HTAB, 5 mM of EDTA). Conduct centrifugation, add 50 μl of supernatant into tube (200 μl of PBS-HTAB-EDTA, 2 ml of HBSS, 100 μl of o-dianisidine dihydrochloride (1.25 mg/ml), 100 μl of H2O2 0.05%), and put it into vortex water tank at 37° C. for 15 min. Then, stop the reaction with 100 μl of NaN3 1%, and detect the MPO absorption value with 460 nm.
6. Conduct cell counting: Dye with MG-1L for 4 min, and dye with 95% of GS-500 for 8 min. Then, make smear to count cells.
7. Conduct factor detection: detect the level of IL-6 with ELISA.

O=C(CCN1CCN(Cc2ccccc2)CC1)Nc1nc(-c2ccccc2)cs1 [TJM2010-5, 3-(4-benzylpiperazin-1-yl)-N-(4-phenylthiazol-2-yl) propanamide]
recruitment of bronchialveolar neutrophile granulocyte (150 mg/kg/d intraperitoneal, FIG. 10b): reduces significantly
level of IL-6 in lung tissue (at 24 h, FIG. 11b): reduces
total cell numbers in bronchial alveolar vs WT mice (day 1, 7, 11, FIG. 10a): statistical differences
MPO factor in lung tissue (detection on day 7, FIG. 11a): reduced
